Literature values in patent US20230037660A1, “METHODS OF TREATING VASCULAR LESIONS AND MALFORMATIONS” (priority 2019, published 2023).

Test system: diseased tissue / blood vessels
Conditions: ICG alone, not conjugated

Structure (SMILES): CC1(C)C(/C=C/C=C/C=C/C=C2\N(CCCCS(=O)(=O)O)c3ccc4ccccc4c3C2(C)C)=[N+](CCCCS(=O)(=O)[O-])c2ccc3ccccc3c21 [ICG, indocyanine green]
- Fluorescence behaviour of the dye alone after injection: transiently lights up blood vessels immediately after injection
